Results on twelve compounds are retold here after ChEMBL document CHEMBL5126651, “ALK Inhibitors for Treating Cancer, Blood, and Kidney Diseases” (ACS Med Chem Lett, 2022).

Usually IC50 stands for the concentration at which inhibition is half-maximal. A high value points to lower potency.

The species named for assay [1] is Homo sapiens. Put plainly: Selectivity ratio of IC50 for ALK2 (unknown origin) to IC50 for ALK5 (unknown origin).
The target of assay [2] is T1, TGF-beta receptor type-1 (Homo sapiens, UniProt P36897).
T1 sequence (P36897 whole entry): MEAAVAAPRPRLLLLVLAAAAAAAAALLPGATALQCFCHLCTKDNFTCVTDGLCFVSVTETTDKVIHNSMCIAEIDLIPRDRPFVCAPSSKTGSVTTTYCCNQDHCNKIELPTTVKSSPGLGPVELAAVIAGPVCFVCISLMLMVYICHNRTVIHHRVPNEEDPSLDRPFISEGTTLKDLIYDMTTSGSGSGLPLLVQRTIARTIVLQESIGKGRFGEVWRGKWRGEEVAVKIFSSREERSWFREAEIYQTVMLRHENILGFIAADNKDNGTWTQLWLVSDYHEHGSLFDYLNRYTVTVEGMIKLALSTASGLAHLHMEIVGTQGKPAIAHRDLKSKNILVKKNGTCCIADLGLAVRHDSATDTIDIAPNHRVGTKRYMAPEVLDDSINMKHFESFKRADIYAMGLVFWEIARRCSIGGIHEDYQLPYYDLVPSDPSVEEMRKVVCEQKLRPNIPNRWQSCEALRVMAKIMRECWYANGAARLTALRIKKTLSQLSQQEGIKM
Put plainly: Displacement of Alexa Fluor labeled tracer 178 from ALK5 (unknown origin) using anti-GST antibody incubated for 60 mins by TR-FRET based LanthaScreen Eu-Kinase binding assay. (Time-resolved FRET reads energy transfer from a long-lived donor to a nearby acceptor.)

The target in assay [3] is T2, TGF-beta receptor type-1 (Homo sapiens) (UniProt P36897).
T2 sequence (whole entry): T1 sequence (P36897 whole entry)
The experiment in a line: Inhibition of TGF-beta receptor 1 in human RD cells transfected with Smad reporter plasmid by reporter gene based One-Glo luciferase assay. In kind it is cell-based.

Regarding `Cc1cccc2c(Nc3nc(Nc4cc(CN5CCNCC5)ccc4F)ncc3F)cnnc12`, the Ratio IC50 in assay [1] was more than 10. This compound also displayed an IC50 in assay [2] of 10 nM. Besides, the INH in assay [3] is less than 1000 nM.

Take `Cc1cccc2c(Nc3ccnc(Nc4ccc(N5CCOCC5)c(Cl)c4)n3)cnnc12`: in assay [1], the Ratio IC50 stood at 10. For the same compound, in assay [2], the IC50 is not above 10 nM. The compound further gave an INH in assay [3] of less than 100 nM.

With `Cc1cccc2c(Nc3ccnc(Nc4cc(F)cc(CN5CCNCC5)c4)n3)cnnc12`, the Ratio IC50 in assay [1] was more than 10. In addition, in assay [2], the IC50 is not above 10 nM. The compound also returned an INH in assay [3] of less than 100 nM.

Consider `Cc1cccc2c(Nc3ccnc(Nc4cccc(CN5CCN(C)CC5)c4)n3)cnnc12`, for which the Ratio IC50 in assay [1] was more than 10. The compound further came in with a 50% inhibitory concentration (IC50) in assay [2] not above 10 nM. For the same compound, the INH in assay [3] is less than 100 nM.

Regarding `Cc1cccc2c(Nc3ccnc(Nc4ccc(N5CCNCC5)c(F)c4)n3)cnnc12`, the Ratio IC50 in assay [1] was 10. The IC50 in assay [2] was not above 10 nM. The compound also came in with an INH in assay [3] of less than 100 nM.

Turning to `Cc1cc(F)cc2c(Nc3ccnc(Nc4ccc(N5CCN(C)CC5)cc4)n3)cnnc12`, the Ratio IC50 in assay [1] is 10. In assay [2], this compound had an IC50 not above 10 nM. Moreover, the INH in assay [3] was less than 100 nM.

Regarding `Cc1cccc2c(Nc3ccnc(Nc4cc(CN5CCNCC5)ccc4F)n3)cnnc12`, in assay [1], the Ratio IC50 was 10. In addition, in assay [2], the IC50 is not above 10 nM. Moreover, the INH in assay [3] was less than 1000 nM.

As to `Cc1cccc2c(Nc3ccnc(Nc4cccc(N5CCOCC5)c4)n3)cnnc12`, the Ratio IC50 in assay [1] stood at 10. For the same compound, in assay [2], the IC50 is not above 10 nM. Also, the INH in assay [3] is less than 100 nM.

As to `Cc1c(F)ccc2c(Nc3ccnc(Nc4ccc(N5CCNCC5)cc4)n3)cnnc12`, the Ratio IC50 in assay [1] turned out to be 10. Also, in assay [2], the IC50 was not above 10 nM. Moreover, the INH in assay [3] was less than 100 nM.

Regarding `Cc1c(F)ccc2c(Nc3ccnc(Nc4ccc(N5CCN(C)CC5)cc4)n3)cnnc12`, the Ratio IC50 in assay [1] is 10. This compound also returned an IC50 in assay [2] not above 10 nM. The compound also registered an INH in assay [3] of less than 100 nM.

Turning to `Cc1cccc2c(Nc3ccnc(Nc4ccc(N5CCOCC5)cc4)n3)cnnc12`, in assay [1], the Ratio IC50 was 10. The compound further had an IC50 in assay [2] not above 10 nM. In assay [3], this compound registered an INH of less than 100 nM.

Turning to `Cc1cccc2c(Nc3ccnc(Nc4ccc(CC5CCNCC5)cc4)n3)cnnc12`, the Ratio IC50 in assay [1] was found to be 10. In assay [2], this compound came in with an IC50 of less than 1000 nM. The compound also gave an INH in assay [3] of less than 1000 nM.
